Laboratory results taken from publication PMC4922569, “Antifibrotic Effects of the Dual CCR2/CCR5 Antagonist Cenicriviroc in Animal Models of Liver and Kidney Fibrosis” (PLoS ONE, 2016).
Counter-ions that a name gives are not always drawn.

Columns and labels:
[1] = Body and liver weights, NASH model; format: in vivo, mouse; settings: mean±SD
Procedure: (§1) NASH was induced in male C57BL/6 mice (Charles River Laboratories, Japan) via subcutaneous injection of 200 μg of streptozotocin 2 days post-birth (causing mild islet inflammation and islet destruction) plus a high-fat diet (57 kcal% fat) from 4 weeks of age (sequentially causing fatty changes to the liver, NASH and fibrosis). From Weeks 6 to 9, three groups (n = 9/group) received vehicle control, CVC20 or CVC100 BID PO (S1 Table). At Week 9, six animals per group were sacrificed for assessment of liver fibrosis and Non-Alcoholic Fatty Liver Disease (NAFLD) Activity Score (NAS). The animals were sacrificed by exsanguination through direct cardiac puncture under ether anesthesia. Study endpoints included: body and liver weights, plasma biochemistry (e.g. ALT and CCL2), extracellular matrix protein in liver tissue (hydroxyproline content), mRNA expression (collagen type 1, tumor necrosis factor-alpha, MCP-1, TIMP1) and histopathological analyses. Blood samples were collected and plasma samples derived for biochemistry assessments. Sections were cut from paraffin blocks of liver tissue, prefixed in Bouin’s solution and stained with H&E for histological examination.
Body weight (measured before and during treatment) and sacrificed animal body and liver/kidney/spleen weights were recorded.

CCR5 = settings: cited from earlier work
[2] = system: hepatic fibrosis scores (APRI, FIB-4, ELF); settings: cited from earlier work
MCD-induced NASH = settings: cited from earlier work
[3] = set-up: method as in PMID 21317794, PMID 21486960, PMID 16251299; settings: in humans; cited from earlier work
diet-induced NASH = assay: Mouse model of diet-induced NASH; format: in vivo; settings: for NAS, mean (±SD): vehicle 5.3 (±0.5); for Liver hydroxyproline content: vehicle 0.75±0.18; for Percentage of inflammation area (F4/80+ area): vehicle 4.99±1.10; for M1/M2 ratio (F4/80+CD16/32+ / F4/80+CD206+): vehicle 99.6±20.2; for Reduction in modified fibrosis area (perivascular space subtracted) vs vehicle control / Reduction in percentage of fibrosis area vs vehicle control: p < 0.01; for Plasma CCL2 levels: vehicle 60±4
Procedure: as §1
In the TAA model, serum ALT/AST levels were measured using VITROS® 5,1 FS (Ortho Clinical Diagnostics, USA), with plasma diluted with VITROS® 7% bovine serum albumin if needed. In the NASH model, plasma ALT levels were measured by FUJI DRI-CHEM 7000 (Fujifilm, Japan) and plasma CCL2 concentration quantified by the mouse CCL2/JE/MCP-1 immunoassay kit (R&D, USA).
In the NASH model, bright field images of picrosirius red-stained sections were captured around the central vein using a digital camera (DFC280; Leica, Germany) at 200x magnification; the ‘positive’ areas in five fields/sections were measured using ImageJ software (National Institutes of Health, USA). Perivascular areas were subtracted from the total positive areas for each field (modified fibrosis area). The NAS, a histological tool developed to assess disease severity in humans, was assessed in a blinded fashion and calculated according to Kleiner’s criteria on H&E-stained sections. It is based on the semi-quantification of steatosis, lobular inflammation and hepatocellular ballooning.
In the NASH model, liver sections fixed in acetone were incubated with anti-F4/80 antibody (BMA Biomedicals, Switzerland) to assess inflammation. Double immunohistochemical analyses were performed with anti-CD206 (RayBiotec, USA) or anti-CD16/32 (BD Biosciences, USA) antibodies. Cells were counted and the M1/M2 polarization ratio was calculated as mean percentage of F4/80+CD16/32+ cells/mean percentage of F4/80+CD206+ cells.
In the NASH model, frozen liver samples were subjected to an alkaline-acid hydrolysis, then centrifuged, and the supernatant collected. Hydroxyproline content was quantified against a hydroxyproline standard curve, with a BCA protein assay kit (Thermo Fisher Scientific, USA) used to normalize the calculated hydroxyproline values.
In the hepatic-fibrosis models, RNA was extracted from liver tissues and purified, and 1 μg of total mRNA was reverse-transcribed into complementary DNA. Expression levels were determined by quantitative polymerase chain reaction (PCR) (iQ™ SYBR® Green Supermix [Bio-Rad Laboratories, USA] on the LightCycler® 480 Real-Time PCR System [Roche, Switzerland]) in the TAA model at Week 8 (early intervention and established fibrosis) and Week 12 (cirrhosis reversal), and by real-time PCR (PCR Dice® and SYBR® Premix Ex Taq™ [Takara Bio Inc., Japan]) at Week 9 in the NASH model.
Relative mRNA expression levels were normalized to the following reference genes: TAA model, GAPDH; NASH model, 36B4 (gene symbol: Rplp0); UUO model, hypoxanthine phosphoribosyltransferase.
In the NASH model, data are expressed as mean ±standard deviation (SD). Statistical analyses were performed using the Bonferroni multiple comparison test (GraphPad Prism® 4 software).

[4] = between Baseline and Week 24, maintained at Week 48

## CCCCOCCOc1ccc(-c2ccc3c(c2)/C=C(/C(=O)Nc2ccc([S@@+]([O-])Cc4cncn4CCC)cc2)CCCN3CC(C)C)cc1 [CVC, cenicriviroc mesylate]
[1]; CVC 20 mg/kg/day
  Final body weight: 19.5 ± 2.0 g
  Liver weight: 1334 ± 99 mg
  Liver-to-body weight ratio: 6.9±1.0%
[1]; CVC 100 mg/kg/day
  Final body weight: 18.7 ± 0.9 g
  Liver weight: 1307 ± 119 mg
  Liver-to-body weight ratio: 7.0±0.8%
CCR5; CVC 250 nM, murine cryopreserved PBMC ex vivo
  Occupancy for CCR5 (spleen) in proinflammatory monocytes: 87%
CCR5; CVC concentrations of 250 nmol/L or higher, mouse monocytes and macrophages ex vivo
  CCR5 occupancy: > 87%
[2]; Week 48, p < 0.0001
  Enhanced liver fibrosis (ELF) scores: significant reduction
[2]; [4]
  Decrease in proportion of subjects with APRI score ≥0.5: 75%
  Decrease in proportion of subjects with FIB-4 score ≥1.45: 73%
MCD-induced NASH; MCD model, preliminary data
  Infiltration of Ly6Chi monocyte-derived macrophages into the liver: significantly decreased
MCD-induced NASH; chronic MCD model of NASH
  Hepatic fibrosis (Sirius red staining and hydroxyproline content): reduced
  Steatohepatitis, assessed by histological NAFLD activity score: significantly ameliorated
[3]
  Plasma half-life: 30 to 40 h
diet-induced NASH; CVC20, n = 6
  Hepatocyte ballooning score 0, number of animals: 0
  Hepatocyte ballooning score 1, number of animals: 3
  Hepatocyte ballooning score 2, number of animals: 3
  Lobular inflammation score 0, number of animals: 0
  Lobular inflammation score 1, number of animals: 3
  Lobular inflammation score 2, number of animals: 3
  Lobular inflammation score 3, number of animals: 0
  Steatosis score 0, number of animals: 0
  Steatosis score 1, number of animals: 6
  Steatosis score 2, number of animals: 0
  Steatosis score 3, number of animals: 0
diet-induced NASH; CVC20, n = 6, p = 0.0013
  NAS, mean (±SD): 4.0 (±0.6)
diet-induced NASH; CVC20, p < 0.05
  Reduction in collagen type 1 mRNA expression vs vehicle control: 37%
diet-induced NASH; CVC20
  Liver hydroxyproline content: 0.63 ± 0.05 µg/mg
diet-induced NASH; CVC20, not significant
  Percentage of inflammation area (F4/80+ area): 4.77±1.02%
  M1/M2 ratio (F4/80+CD16/32+ / F4/80+CD206+): 112.3±17.0%
diet-induced NASH; CVC20 BID PO Weeks 6-9
  Reduction in modified fibrosis area (perivascular space subtracted) vs vehicle control: 52.5%
  Reduction in percentage of fibrosis area vs vehicle control: 40.0%
diet-induced NASH; CVC20 BID PO Weeks 6-9, not significant
  Plasma CCL2 levels: 68 ± 16 pg/mL
diet-induced NASH; CVC100, n = 6
  Hepatocyte ballooning score 0, number of animals: 1
  Hepatocyte ballooning score 1, number of animals: 2
  Hepatocyte ballooning score 2, number of animals: 3
  Lobular inflammation score 0, number of animals: 0
  Lobular inflammation score 1, number of animals: 3
  Lobular inflammation score 2, number of animals: 3
  Lobular inflammation score 3, number of animals: 0
  Steatosis score 0, number of animals: 1
  Steatosis score 1, number of animals: 5
  Steatosis score 2, number of animals: 0
  Steatosis score 3, number of animals: 0
diet-induced NASH; CVC100, n = 6, p = 0.0009
  NAS, mean (±SD): 3.7 (±0.8)
diet-induced NASH; CVC100, not statistically significant
  Reduction in collagen type 1 mRNA expression vs vehicle control: 27%
diet-induced NASH; CVC100
  Liver hydroxyproline content: 0.62 ± 0.09 µg/mg
diet-induced NASH; CVC100, not significant
  M1/M2 ratio (F4/80+CD16/32+ / F4/80+CD206+): 125.1±21.9%
diet-induced NASH; CVC100 BID PO Weeks 6-9
  Reduction in modified fibrosis area (perivascular space subtracted) vs vehicle control: 67.2%
  Reduction in percentage of fibrosis area vs vehicle control: 41.8%
diet-induced NASH; CVC100 BID PO Weeks 6-9, significant increase
  Plasma CCL2 levels: 91 ± 14 pg/mL
diet-induced NASH; CVC-high, not significant
  Percentage of inflammation area (F4/80+ area): 4.96±0.60%
diet-induced NASH; NASH model, Week 9
  mRNA expression levels of the other fibrosis markers tested, vehicle control vs CVC groups: no statistically significant differences
diet-induced NASH; both CVC doses (CVC20, CVC100 BID PO Weeks 6-9), p < 0.05
  Plasma ALT levels vs vehicle control: significantly decreased
